Data set [1] concerns BCRP. Set-up: method as in PMID 22263589, PMID 23497885. The following applies: cited from earlier work.
In data set [2] the target is T1, hOAT1 (Homo sapiens, UniProt Q4U2R8).
T1 construct: host or cells: MDCK
T1 sequence (Q4U2R8 1-563): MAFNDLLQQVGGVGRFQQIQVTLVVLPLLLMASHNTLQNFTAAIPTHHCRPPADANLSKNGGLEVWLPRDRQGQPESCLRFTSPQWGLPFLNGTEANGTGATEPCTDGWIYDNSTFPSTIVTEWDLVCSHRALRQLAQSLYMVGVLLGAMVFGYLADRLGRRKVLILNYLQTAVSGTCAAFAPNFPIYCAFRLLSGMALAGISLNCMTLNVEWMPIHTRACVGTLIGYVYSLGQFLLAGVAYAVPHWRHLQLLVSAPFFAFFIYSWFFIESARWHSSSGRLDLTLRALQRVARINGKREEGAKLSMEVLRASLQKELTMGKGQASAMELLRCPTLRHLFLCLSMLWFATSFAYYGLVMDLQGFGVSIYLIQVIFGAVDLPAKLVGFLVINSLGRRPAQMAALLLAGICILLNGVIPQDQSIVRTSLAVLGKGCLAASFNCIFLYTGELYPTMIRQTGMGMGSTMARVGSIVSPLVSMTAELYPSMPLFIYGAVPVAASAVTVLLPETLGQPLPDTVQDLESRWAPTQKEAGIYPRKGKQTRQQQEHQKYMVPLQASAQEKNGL
Nature of the data set: Cis-inhibition assay, 3H-PAH uptake in hOAT1-MDCK cells. Format: cell-based. The following applies: 10 µM pinocembrin, compared with vehicle control. As to the method:
Next, the effects of pinocembrin on the transport function of renal drug transporters, including hOAT1, hOAT3, hOCT1, hOCT2, hMATE1, and hMATE2, were determined.
(§1) A cell monolayer comprising hOAT1-MDCK, hOAT3-MDCK, hOCT1-CHO-K1, hOCT2-CHO-K1, hMATE1-CHO-K1, hMATE2-CHO-K1, and mock cells were utilized for the uptake experiments. The cells were washed three times with a buffer containing (in mM) 140 NaCl, 5 KCl, 0.4 MgSO4, 0.5 MgCl2, 1 CaCl2, 0.3 Na2HPO4, 0.4 KH2PO4, 6 D-glucose, and 4 NaHCO3 at pH 7.4 and incubated at 37 °C for 15 min. After incubation, the hOAT1-MDCK and hOAT3-MDCK cells were incubated for 10 min with ^3H-PAH and ^3H-estrone sulfate, a substrate of hOAT1 and hOAT3, respectively. The hOCT1-CHO-K1 and hOCT2-CHO-K1 cells were incubated with ^3H-MPP^+, a substrate of OCT1 and OCT2, for five minutes. The functions of MATE1 and MATE2 were determined by incubating the hMATE1-CHO-K1 and hMATE2-CHO-K1 cells with a buffer containing ^3H-MPP^+, a substrate of MATE1 and MATE2, at pH 8.5 for five minutes. The cells were washed three times with an ice-cold buffer to stop the transport function. The cells were lyzed with 0.4 N NaOH for at least four hours. The samples were collected and transferred to vials containing a liquid scintillation cocktail to measure radioactivity by a β-counter (Packard BioScience, Wellesley, MA, USA). […]

Data set [3] deals with CYP1A2. The following applies: cited from earlier work.
For data set [4], the target named is T2, CYP2C9 (Homo sapiens, UniProt P11712).
T2 construct: purchased Life Technologies
T2 sequence (P11712 whole entry): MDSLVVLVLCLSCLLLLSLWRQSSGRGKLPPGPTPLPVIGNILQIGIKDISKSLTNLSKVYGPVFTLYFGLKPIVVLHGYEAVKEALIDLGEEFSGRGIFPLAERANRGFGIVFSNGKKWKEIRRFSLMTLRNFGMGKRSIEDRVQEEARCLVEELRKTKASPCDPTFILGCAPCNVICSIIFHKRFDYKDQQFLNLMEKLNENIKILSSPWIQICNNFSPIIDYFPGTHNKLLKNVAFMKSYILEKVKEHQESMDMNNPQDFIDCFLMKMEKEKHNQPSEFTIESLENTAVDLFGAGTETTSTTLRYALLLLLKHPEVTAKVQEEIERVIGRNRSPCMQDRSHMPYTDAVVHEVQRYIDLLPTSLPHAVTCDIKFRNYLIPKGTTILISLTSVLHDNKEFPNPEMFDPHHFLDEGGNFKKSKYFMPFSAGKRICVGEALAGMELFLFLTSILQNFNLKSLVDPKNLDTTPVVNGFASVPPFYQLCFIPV
Nature of the data set: Cell-free CYP450 inhibition assay, CYP2C9. The following applies: cell-free fluorescent probe assay, BACULOSOMES
Format: biochemical. As to the method:
To determine whether pinocembrin influences the catalytic activity of CYP450 enzymes, fluorescent probe reaction assays were performed using varying concentrations of pinocembrin. […] In addition, molecular docking was conducted to better understand the binding mode and interactions between pinocembrin and human CYP2C19.
The CYP450 inhibitory activity of pinocembrin was determined using a P450 screening kit (Life Technologies; Carlsbad, CA, USA). Varied concentrations of pinocembrin were prepared in methanol. […] The fluorescence intensities were monitored every minute for 60 min at room temperature. The percentage of inhibition was calculated according to the following equation: % Inhibition=(1−X−B/A−B)×100% where X is the fluorescence intensity observed in the presence of pinocembrin.

Data set [5] relates to P-gp. The following applies: cited from earlier work.
For data set [6], the target named is T3, P-gp (Homo sapiens, UniProt P08183).
T3 construct: Caco-2 cell monolayers, which express both P-gp and BCRP; host or cells: Caco-2
T3 sequence (P08183 whole entry): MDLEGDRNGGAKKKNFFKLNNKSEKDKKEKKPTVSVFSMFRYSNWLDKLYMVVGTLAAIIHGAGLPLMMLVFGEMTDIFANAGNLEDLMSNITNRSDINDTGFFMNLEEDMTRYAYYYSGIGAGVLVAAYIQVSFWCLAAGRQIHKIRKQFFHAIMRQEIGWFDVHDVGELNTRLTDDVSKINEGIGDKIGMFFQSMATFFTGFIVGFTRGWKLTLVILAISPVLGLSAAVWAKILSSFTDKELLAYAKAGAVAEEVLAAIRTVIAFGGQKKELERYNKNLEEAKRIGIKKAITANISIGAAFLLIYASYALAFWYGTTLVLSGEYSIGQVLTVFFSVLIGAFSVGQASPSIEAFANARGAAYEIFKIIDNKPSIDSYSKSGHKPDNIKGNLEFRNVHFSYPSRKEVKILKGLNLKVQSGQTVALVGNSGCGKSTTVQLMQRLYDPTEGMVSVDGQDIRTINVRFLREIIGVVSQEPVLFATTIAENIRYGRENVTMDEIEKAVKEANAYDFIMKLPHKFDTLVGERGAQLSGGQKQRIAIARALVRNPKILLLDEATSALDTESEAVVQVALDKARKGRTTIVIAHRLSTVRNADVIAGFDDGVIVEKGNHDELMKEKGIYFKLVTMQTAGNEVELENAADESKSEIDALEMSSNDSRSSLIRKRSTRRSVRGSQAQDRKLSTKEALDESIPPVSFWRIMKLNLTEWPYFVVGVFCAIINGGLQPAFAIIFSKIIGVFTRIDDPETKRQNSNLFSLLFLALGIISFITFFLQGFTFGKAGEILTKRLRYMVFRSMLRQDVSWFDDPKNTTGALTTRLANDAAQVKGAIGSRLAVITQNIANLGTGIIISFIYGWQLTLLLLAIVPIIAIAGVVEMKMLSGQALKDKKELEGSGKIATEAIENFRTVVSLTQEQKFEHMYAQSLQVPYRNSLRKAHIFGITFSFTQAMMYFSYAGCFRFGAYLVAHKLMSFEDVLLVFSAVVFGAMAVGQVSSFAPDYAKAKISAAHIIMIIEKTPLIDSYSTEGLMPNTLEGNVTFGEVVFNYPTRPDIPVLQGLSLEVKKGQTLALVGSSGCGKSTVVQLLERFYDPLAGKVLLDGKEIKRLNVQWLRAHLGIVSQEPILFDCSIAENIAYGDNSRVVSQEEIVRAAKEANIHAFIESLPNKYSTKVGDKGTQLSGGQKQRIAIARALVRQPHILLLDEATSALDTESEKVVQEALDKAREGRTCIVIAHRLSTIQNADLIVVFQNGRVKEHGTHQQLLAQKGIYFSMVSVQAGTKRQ
Nature of the data set: P-gp-mediated 3H-digoxin transepithelial transport in Caco-2 cell monolayers. The following applies: 10 µM pinocembrin, 0-120 min, compared with vehicle control. Format: cell-based.
Protocol: The interactions of pinocembrin with P-gp and BCRP were determined by the measurement of P-gp-mediated ^3H-digoxin transport and BCRP-mediated ^3H-estrone sulfate transport in Caco-2 cell monolayers, which express both P-gp and BCRP [20]. The apical sides of the Caco-2 cell monolayers were incubated with a buffer containing ^3H-digoxin alone, ^3H-digoxin plus 10 µM pinocembrin or ^3H-digoxin plus 100 µM verapamil (P-gp inhibitor).
P-gp- and BCRP-mediated transport were measured by the transepithelial transport of their substrates (^3H-digoxin for P-gp and ^3H-estrone sulfate for BCRP) in Caco-2 cell monolayers. […] Caco-2 cells were cultured on membrane inserts (Corning Inc., Corning, NY, USA) for 21 days. […] The basolateral side was replaced with a transport buffer. The sample from the basolateral side was transferred to vials containing a liquid scintillation cocktail to measure radioactivity by a β-counter (Packard BioScience, Wellesley, MA, USA).

Data set [7] addresses T4, hOAT3 (Homo sapiens, UniProt Q8TCC7).
T4 construct: host or cells: MDCK
T4 sequence (Q8TCC7 1-542): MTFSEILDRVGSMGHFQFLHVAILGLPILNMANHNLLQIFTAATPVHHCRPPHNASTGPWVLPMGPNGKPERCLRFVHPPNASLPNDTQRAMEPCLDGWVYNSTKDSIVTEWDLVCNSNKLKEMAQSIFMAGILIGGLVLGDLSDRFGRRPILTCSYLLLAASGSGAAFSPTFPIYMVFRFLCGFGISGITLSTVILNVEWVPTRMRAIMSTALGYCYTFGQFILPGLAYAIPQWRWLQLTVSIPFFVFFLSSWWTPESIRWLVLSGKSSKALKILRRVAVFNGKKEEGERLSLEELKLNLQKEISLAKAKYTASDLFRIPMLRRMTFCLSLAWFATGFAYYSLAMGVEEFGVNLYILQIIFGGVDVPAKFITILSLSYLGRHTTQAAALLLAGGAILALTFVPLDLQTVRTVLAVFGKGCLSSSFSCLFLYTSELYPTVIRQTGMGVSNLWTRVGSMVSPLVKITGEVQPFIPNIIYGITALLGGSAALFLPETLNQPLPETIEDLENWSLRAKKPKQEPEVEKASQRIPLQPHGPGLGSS
Nature of the data set: Pinocembrin treatment followed by 3H-estrone sulfate accumulation in hOAT3-MDCK cells. The following applies: 1, 10 and 50 μM for 24 h, concentration-dependent, compared with vehicle. Format: cell-based. As to the method:
The hOAT1-MDCK cells and hOAT3-MDCK cells were treated with 1, 10, and 50 μM pinocembrin for 24 h, followed by a measurement of ^3H-PAH and ^3H-estrone sulfate cellular accumulation. […] The inhibitory effect of pinocembrin occurred in a concentration-dependent manner.
as §1, with “The cells were lyzed with 0.4 N NaOH for at least four hours.” left out

The values that follow come from article PMC11768629, “Potential Interaction of Pinocembrin with Drug Transporters and Hepatic Drug-Metabolizing Enzymes” (Pharmaceuticals, 2025).

For the molecule `O=C1C[C@@H](c2ccccc2)Oc2cc(O)cc(O)c21` [pinocembrin], the “effect on BCRP” value in data set [1] is recorded as “weakly inhibited”. Further, the 3H-PAH cellular accumulation result in data set [2] was “significantly decreased”. Further, the “mechanism of CYP1A2 inhibition” value in data set [3] was “competitive”. The “effect on the activity of CYP1A2” value in data set [3] (concentrations of 1–5 µM) is listed as “shows an inhibitory effect”. The molecule further gave an IC50 in data set [4] of 345 µM. For the same molecule, in data set [5], the “effect on the P-gp in the blood–brain barrier (BBB)” value is on record as “little effect” and the “effect on the function of P-gp” value is listed as “did not inhibit”. Moreover, the “transport of 3H-digoxin from the apical to basolateral side” value in data set [6] was “did not alter”. The “3H-estrone sulfate accumulation after pinocembrin treatment” value in data set [7] is given as “significantly decreased”.
